Test results as given in patent US12544463B2, “Deuterium substituted positron emission tomography (PET) imaging agents and their pharmacological application” (Five Eleven Pharma Inc., priority 2017, dated 2026).
Values joined by “and” are separate entries in the source; they are usually repeats but may differ in a detail not shown here. Equal entries are not always repeated.

Tests used:
[1] = Biodistribution in rats: ^18F-FP-(+)DTBZ vs ^18F-FP-DTBZ-D6; type: in vivo, rat; settings: for Biodistribution Blood / Biodistribution Bone / Biodistribution Brain / Biodistribution Heart / Biodistribution Kidney / Biodistribution Liver / Biodistribution Lung / Biodistribution Muscle / Biodistribution Pancreas / Biodistribution Skin / Biodistribution Spleen: IV
Experimental: (§1) Three rats per group were used for each biodistribution study. While under isoflurane anesthesia, 0.2 mL of a saline solution containing 20 μCi of radioactive tracer was injected into the femoral vein. The rats were sacrificed at the time indicated by cardiac excision while under isoflurane anesthesia. Organs of interest were removed and weighed, and the radioactivity was counted. The percent dose per organ was calculated by comparing the tissue counts to counts of 1% of the initial dose (100 times diluted aliquots of the injected material) measured at the same time. Regional brain distribution in rats was measured after an iv injection of the radioactive tracer. Samples from different brain regions (cortex, striatum, hippocampus, cerebellum and hypothalamus) were dissected, weighed and counted. The percentage dose/g of each sample was calculated by comparing sample counts with the counts of the diluted initial dose described above. The ratio was calculated by dividing the percentage dose/g of each region by that of the cerebellum. The cerebellum was used as the reference region for calculating the ratio of target to non-target binding, because only a trace amount of VMAT2 binding site is present in the cerebellum.

VMAT2 = biological target: T1, VMAT2 (Rattus norvegicus, UniProt Q01827); test: Regional brain distribution and ratio vs cerebellum in rats (VMAT2 tracers); type: in vivo; settings: IV
T1 construct: from tissue; host or cells: live rats (normal male CD rats), dissected brain regions
Experimental: as §1

[2] = 60 min, listed as 18F-FP-DTBZ-D6 (^18F-Ia)
[3] = 120 min, listed as 18F-FP-DTBZ-D6 (^18F-Ia)

T1 sequence (Q01827 whole entry): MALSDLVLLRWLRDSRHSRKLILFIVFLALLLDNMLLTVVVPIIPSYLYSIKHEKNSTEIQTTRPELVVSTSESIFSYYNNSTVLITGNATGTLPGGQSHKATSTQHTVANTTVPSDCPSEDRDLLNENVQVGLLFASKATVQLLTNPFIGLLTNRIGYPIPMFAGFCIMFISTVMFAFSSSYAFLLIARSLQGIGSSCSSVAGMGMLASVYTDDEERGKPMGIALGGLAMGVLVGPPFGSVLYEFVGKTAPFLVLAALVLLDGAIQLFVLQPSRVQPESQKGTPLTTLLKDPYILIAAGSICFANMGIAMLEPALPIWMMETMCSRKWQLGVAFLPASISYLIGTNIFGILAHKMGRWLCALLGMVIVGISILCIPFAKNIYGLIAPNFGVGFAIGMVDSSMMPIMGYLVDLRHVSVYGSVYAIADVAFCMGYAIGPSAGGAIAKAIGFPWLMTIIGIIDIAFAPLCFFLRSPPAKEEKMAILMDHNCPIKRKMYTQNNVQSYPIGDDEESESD

COc1cc2c(cc1OCCC[18F])CCN1C[C@@H](CC(C)C)[C@H](O)C[C@H]21 [^18F-FP-(+)DTBZ, reference compound]
Biodistribution Blood ([1]; 2 min): 0.24 ± 0.03 % dose/g
Biodistribution Bone ([1]; 2 min): 0.45 ± 0.03 % dose/g
Biodistribution Brain ([1]; 2 min): 0.83 ± 0.06 % dose/g
Biodistribution Heart ([1]; 2 min): 0.96 ± 0.08 % dose/g
Biodistribution Kidney ([1]; 2 min): 2.66 ± 0.15 % dose/g
Biodistribution Liver ([1]; 2 min): 2.28 ± 0.04 % dose/g
Biodistribution Lung ([1]; 2 min): 1.03 ± 0.03 % dose/g
Biodistribution Muscle ([1]; 2 min): 0.11 ± 0.02 % dose/g
Biodistribution Pancreas ([1]; 2 min): 2.29 ± 0.36 % dose/g
Biodistribution Skin ([1]; 2 min): 0.19 ± 0.03 % dose/g
Biodistribution Spleen ([1]; 2 min): 1.19 ± 0.10 % dose/g
Biodistribution Blood ([1]; 60 min): 0.12 ± 0.00 % dose/g
Biodistribution Bone ([1]; 60 min): 1.13 ± 0.07 % dose/g
Biodistribution Brain ([1]; 60 min): 0.35 ± 0.03 % dose/g
Biodistribution Heart ([1]; 60 min): 0.22 ± 0.03 % dose/g
Biodistribution Kidney ([1]; 60 min): 0.63 ± 0.05 % dose/g
Biodistribution Liver ([1]; 60 min): 2.59 ± 0.21 % dose/g
Biodistribution Lung ([1]; 60 min): 0.41 ± 0.03 % dose/g
Biodistribution Muscle ([1]; 60 min): 0.10 ± 0.01 % dose/g
Biodistribution Pancreas ([1]; 60 min): 4.48 ± 0.27 % dose/g
Biodistribution Skin ([1]; 60 min): 0.24 ± 0.03 % dose/g
Biodistribution Spleen ([1]; 60 min): 0.50 ± 0.04 % dose/g
Biodistribution Blood ([1]; 120 min): 0.07 ± 0.01 % dose/g
Biodistribution Bone ([1]; 120 min): 1.86 % dose/g and 1.86 ± 0.24 % dose/g
Biodistribution Brain ([1]; 120 min): 0.26 % dose/g and 0.26 ± 0.03 % dose/g
Biodistribution Heart ([1]; 120 min): 0.16 ± 0.01 % dose/g
Biodistribution Kidney ([1]; 120 min): 0.45 ± 0.02 % dose/g
Biodistribution Liver ([1]; 120 min): 2.12 ± 0.20 % dose/g
Biodistribution Lung ([1]; 120 min): 0.31 ± 0.02 % dose/g
Biodistribution Muscle ([1]; 120 min): 0.07 ± 0.00 % dose/g
Biodistribution Pancreas ([1]; 120 min): 3.56 ± 0.42 % dose/g
Biodistribution Skin ([1]; 120 min): 0.17 ± 0.01 % dose/g
Biodistribution Spleen ([1]; 120 min): 0.37 ± 0.05 % dose/g
Ratio vs. Cerebellum: Cerebellum (VMAT2; 2 min): 1.00 ± 0.00
Ratio vs. Cerebellum: Cortex (VMAT2; 2 min): 1.21 ± 0.04
Ratio vs. Cerebellum: Hippocampus (VMAT2; 2 min): 1.19 ± 0.03
Ratio vs. Cerebellum: Hypothalamus (VMAT2; 2 min): 1.57 ± 0.04
Ratio vs. Cerebellum: Remainder (VMAT2; 2 min): 1.23 ± 0.03
Ratio vs. Cerebellum: Striatum (VMAT2; 2 min): 1.66 ± 0.15
Regional Brain Distribution Cerebellum (VMAT2; 2 min): 0.68 ± 0.06 % dose/gram
Regional Brain Distribution Cortex (VMAT2; 2 min): 0.82 ± 0.07 % dose/gram
Regional Brain Distribution Hippocampus (VMAT2; 2 min): 0.80 ± 0.07 % dose/gram
Regional Brain Distribution Hypothalamus (VMAT2; 2 min): 1.06 ± 0.10 % dose/gram
Regional Brain Distribution Remainder (VMAT2; 2 min): 0.83 ± 0.06 % dose/gram
Regional Brain Distribution Striatum (VMAT2; 2 min): 1.12 ± 0.04 % dose/gram
Ratio vs. Cerebellum: Cerebellum (VMAT2; 60 min): 1.00 ± 0.00
Ratio vs. Cerebellum: Cortex (VMAT2; 60 min): 1.13 ± 0.09
Ratio vs. Cerebellum: Hippocampus (VMAT2; 60 min): 1.64 ± 0.19
Ratio vs. Cerebellum: Hypothalamus (VMAT2; 60 min): 3.91 ± 0.37
Ratio vs. Cerebellum: Remainder (VMAT2; 60 min): 1.68 ± 0.07
Ratio vs. Cerebellum: Striatum (VMAT2; 60 min): 5.66 and 5.66 ± 0.72
Regional Brain Distribution Cerebellum (VMAT2; 60 min): 0.19 ± 0.02 % dose/gram
Regional Brain Distribution Cortex (VMAT2; 60 min): 0.21 ± 0.01 % dose/gram
Regional Brain Distribution Hippocampus (VMAT2; 60 min): 0.30 ± 0.01 % dose/gram
Regional Brain Distribution Hypothalamus (VMAT2; 60 min): 0.73 ± 0.11 % dose/gram
Regional Brain Distribution Remainder (VMAT2; 60 min): 0.31 ± 0.02 % dose/gram
Regional Brain Distribution Striatum (VMAT2; 60 min): 1.04 ± 0.05 % dose/gram
Ratio vs. Cerebellum: Cerebellum (VMAT2; 120 min): 1.00 ± 0.00
Ratio vs. Cerebellum: Cortex (VMAT2; 120 min): 1.11 ± 0.09
Ratio vs. Cerebellum: Hippocampus (VMAT2; 120 min): 1.79 ± 0.12
Ratio vs. Cerebellum: Hypothalamus (VMAT2; 120 min): 4.04 ± 0.66
Ratio vs. Cerebellum: Remainder (VMAT2; 120 min): 1.59 ± 0.09
Ratio vs. Cerebellum: Striatum (VMAT2; 120 min): 6.54 ± 0.59
Regional Brain Distribution Cerebellum (VMAT2; 120 min): 0.13 ± 0.01 % dose/gram
Regional Brain Distribution Cortex (VMAT2; 120 min): 0.15 ± 0.02 % dose/gram
Regional Brain Distribution Hippocampus (VMAT2; 120 min): 0.24 ± 0.03 % dose/gram
Regional Brain Distribution Hypothalamus (VMAT2; 120 min): 0.54 ± 0.11 % dose/gram
Regional Brain Distribution Remainder (VMAT2; 120 min): 0.21 ± 0.02 % dose/gram
Regional Brain Distribution Striatum (VMAT2; 120 min): 0.87 ± 0.12 % dose/gram

[2H]C([2H])([18F])C([2H])([2H])C([2H])([2H])Oc1cc2c(cc1OC)[C@H]1C[C@@H](O)[C@H](CC(C)C)CN1CC2 [^18F-FP-(+)DTBZ-D6 (^18F-Ia)]
increase in total brain uptake vs ^18F-FP-(+)DTBZ ([1]; 120 min after iv injection): 40%
Biodistribution Blood ([1]; 2 min): 0.23 ± 0.03 % dose/g
Biodistribution Bone ([1]; 2 min): 0.33 ± 0.04 % dose/g
Biodistribution Brain ([1]; 2 min): 0.64 ± 0.07 % dose/g
Biodistribution Heart ([1]; 2 min): 0.69 ± 0.12 % dose/g
Biodistribution Kidney ([1]; 2 min): 1.89 ± 0.07 % dose/g
Biodistribution Liver ([1]; 2 min): 2.79 ± 0.12 % dose/g
Biodistribution Lung ([1]; 2 min): 0.87 ± 0.05 % dose/g
Biodistribution Muscle ([1]; 2 min): 0.17 ± 0.02 % dose/g
Biodistribution Pancreas ([1]; 2 min): 2.62 ± 0.15 % dose/g
Biodistribution Skin ([1]; 2 min): 0.24 ± 0.02 % dose/g
Biodistribution Spleen ([1]; 2 min): 1.04 ± 0.10 % dose/g
Biodistribution Blood ([1]; 60 min): 0.11 ± 0.01 % dose/g
Biodistribution Bone ([1]; 60 min): 0.47 ± 0.02 % dose/g
Biodistribution Brain ([1]; 60 min): 0.44 ± 0.02 % dose/g
Biodistribution Heart ([1]; 60 min): 0.26 ± 0.01 % dose/g
Biodistribution Kidney ([1]; 60 min): 0.66 ± 0.04 % dose/g
Biodistribution Liver ([1]; 60 min): 3.19 ± 0.46 % dose/g
Biodistribution Lung ([1]; 60 min): 0.49 ± 0.00 % dose/g
Biodistribution Muscle ([1]; 60 min): 0.11 ± 0.00 % dose/g
Biodistribution Pancreas ([1]; 60 min): 5.01 ± 0.69 % dose/g
Biodistribution Skin ([1]; 60 min): 0.25 ± 0.01 % dose/g
Biodistribution Spleen ([1]; 60 min): 0.66 ± 0.03 % dose/g
Biodistribution Bone [1, 2]: 0.47 % dose/g
Biodistribution Blood ([1]; 120 min): 0.10 ± 0.00 % dose/g
Biodistribution Bone ([1]; 120 min): 0.65 ± 0.03 % dose/g
Biodistribution Brain ([1]; 120 min): 0.34 ± 0.02 % dose/g
Biodistribution Heart ([1]; 120 min): 0.21 ± 0.01 % dose/g
Biodistribution Kidney ([1]; 120 min): 0.59 ± 0.02 % dose/g
Biodistribution Liver ([1]; 120 min): 3.10 ± 0.49 % dose/g
Biodistribution Lung ([1]; 120 min): 0.41 ± 0.01 % dose/g
Biodistribution Muscle ([1]; 120 min): 0.09 ± 0.01 % dose/g
Biodistribution Pancreas ([1]; 120 min): 4.49 ± 0.17 % dose/g
Biodistribution Skin ([1]; 120 min): 0.21 ± 0.01 % dose/g
Biodistribution Spleen ([1]; 120 min): 0.51 ± 0.03 % dose/g
Biodistribution Bone [1, 3]: 0.65 % dose/g
Biodistribution Brain [1, 3]: 0.34 % dose/g
Ratio vs. Cerebellum: Cerebellum (VMAT2; 2 min): 1.00 ± 0.00
Ratio vs. Cerebellum: Cortex (VMAT2; 2 min): 1.36 ± 0.05
Ratio vs. Cerebellum: Hippocampus (VMAT2; 2 min): 1.26 ± 0.04
Ratio vs. Cerebellum: Hypothalamus (VMAT2; 2 min): 1.71 ± 0.10
Ratio vs. Cerebellum: Remainder (VMAT2; 2 min): 1.33 ± 0.03
Ratio vs. Cerebellum: Striatum (VMAT2; 2 min): 2.08 ± 0.30
Regional Brain Distribution Cerebellum (VMAT2; 2 min): 0.48 ± 0.04 % dose/gram
Regional Brain Distribution Cortex (VMAT2; 2 min): 0.65 ± 0.07 % dose/gram
Regional Brain Distribution Hippocampus (VMAT2; 2 min): 0.60 ± 0.07 % dose/gram
Regional Brain Distribution Hypothalamus (VMAT2; 2 min): 0.82 ± 0.10 % dose/gram
Regional Brain Distribution Remainder (VMAT2; 2 min): 0.64 ± 0.07 % dose/gram
Regional Brain Distribution Striatum (VMAT2; 2 min): 1.00 ± 0.22 % dose/gram
Ratio vs. Cerebellum: Cerebellum (VMAT2; 60 min): 1.00 ± 0.00
Ratio vs. Cerebellum: Cortex (VMAT2; 60 min): 1.13 ± 0.02
Ratio vs. Cerebellum: Hippocampus (VMAT2; 60 min): 1.68 ± 0.12
Ratio vs. Cerebellum: Hypothalamus (VMAT2; 60 min): 3.93 ± 0.15
Ratio vs. Cerebellum: Remainder (VMAT2; 60 min): 1.59 ± 0.04
Ratio vs. Cerebellum: Striatum (VMAT2; 60 min): 6.05 ± 0.43
Regional Brain Distribution Cerebellum (VMAT2; 60 min): 0.23 ± 0.01 % dose/gram
Regional Brain Distribution Cortex (VMAT2; 60 min): 0.26 ± 0.01 % dose/gram
Regional Brain Distribution Hippocampus (VMAT2; 60 min): 0.39 ± 0.01 % dose/gram
Regional Brain Distribution Hypothalamus (VMAT2; 60 min): 0.91 ± 0.03 % dose/gram
Regional Brain Distribution Remainder (VMAT2; 60 min): 0.37 ± 0.02 % dose/gram
Regional Brain Distribution Striatum (VMAT2; 60 min): 1.40 ± 0.06 % dose/gram
Ratio vs. Cerebellum: Striatum (VMAT2; [2]): 6.05
Ratio vs. Cerebellum: Cerebellum (VMAT2; 120 min): 1.00 ± 0.00
Ratio vs. Cerebellum: Cortex (VMAT2; 120 min): 1.10 ± 0.09
Ratio vs. Cerebellum: Hippocampus (VMAT2; 120 min): 1.74 ± 0.32
Ratio vs. Cerebellum: Hypothalamus (VMAT2; 120 min): 3.56 ± 0.49
Ratio vs. Cerebellum: Remainder (VMAT2; 120 min): 1.52 ± 0.03
Ratio vs. Cerebellum: Striatum (VMAT2; 120 min): 5.49 ± 0.43
Regional Brain Distribution Cerebellum (VMAT2; 120 min): 0.18 ± 0.01 % dose/gram
Regional Brain Distribution Cortex (VMAT2; 120 min): 0.20 ± 0.00 % dose/gram
Regional Brain Distribution Hippocampus (VMAT2; 120 min): 0.31 ± 0.04 % dose/gram
Regional Brain Distribution Hypothalamus (VMAT2; 120 min): 0.65 ± 0.11 % dose/gram
Regional Brain Distribution Remainder (VMAT2; 120 min): 0.28 ± 0.02 % dose/gram
Regional Brain Distribution Striatum (VMAT2; 120 min): 1.00 ± 0.08 % dose/gram
